Data taken from paper PMC5948259, “A phase I study to assess the mass balance, excretion, and pharmacokinetics of [^14C]-ixazomib, an oral proteasome inhibitor, in patients with advanced solid tumors” (Investigational New Drugs, 2017).
Like-named read-outs stand apart in the source and are kept apart here.

How the values were obtained:
[1] = PK of ixazomib in plasma and urine (LC/MS/MS) after a single [14C]-ixazomib oral solution dose, phase I human ADME study Part A; assay type: in vivo; settings: N = 5
Method: (§1) The primary objectives of the study were: (1) to assess the mass balance (i.e., cumulative excretion of TRA in urine and feces) of ixazomib following a single oral solution dose of 4.1 mg [^14C]-ixazomib containing approximately 500 nCi of TRA (specific activity of 125 nCi/mg); and (2) to characterize the PK of ixazomib in plasma and urine, and of TRA in plasma and whole blood, after a single oral solution dose of 4.1 mg [^14C]-ixazomib. The secondary objective was to assess the safety and tolerability of multiple-dose ixazomib administration in patients with advanced solid tumors or lymphoma.
(§2) This study was conducted in two parts: a 35-day PK cycle (Part A), followed by repeated 28-day treatment cycles (Part B; Fig. 1). In Part A of the study, patients who met the inclusion and exclusion criteria were admitted to the study clinic on the morning of day 1 for the initial confinement period (days 1–8). Patients received a single 10 mL oral solution dose of 4.1 mg [^14C]-ixazomib containing approximately 500 nCi of TRA, followed by 3 × 10 mL water rinses of the dosing cup. Patients then drank approximately 200 mL of water. Patients returned to the clinic on days 14, 21, 28, and 35 for a 24 h overnight clinic visit. Non-radiolabeled doses of ixazomib (4 mg capsule) were administered on days 14 and 21. After completing their day 35 assessments in Part A, patients were permitted to continue into Part B of the study, where they received non-radiolabeled ixazomib (4 mg capsules) once weekly on days 1, 8, and 15 of each 28-day treatment cycle until disease progression or unacceptable toxicity. All doses of ixazomib were administered on an empty stomach, at least 1 h before or at least 2 h after food.
Plasma and whole blood samples were collected at the following time points after ixazomib administration on day 1 of Part A: 0 (predose), 0.5, 1, 2, 3, 4, 8, 24, 48, 72, 96, 120, 144, 168, 312 (day 14), 480 (day 21), 648 (day 28), and 816 (day 35) h post dose. Complete urinary and fecal output was collected continuously during the initial confinement period of Part A (days 1–8). Patients were discharged from the clinic on day 8 and returned on days 14, 21, 28, and 35 for a 24 h overnight visit. Urinary and fecal output was collected during each of these 24 h overnight clinic visits. Patients were also instructed to collect all feces at home for the 24 h period before each overnight clinic visit (days 13, 20, 27, and 34).
Plasma and urine concentrations of ixazomib were measured using a validated liquid chromatography/tandem mass spectrometry (LC/MS/MS) assay with a quantitation range of 0.5–500 ng/mL [16].
The plasma PK of ixazomib was characterized over the first 14 days post dose, while the urine PK and excretion of ixazomib was assessed over the first 7 days post dose. TRA in plasma, whole blood, urine, and feces was assessed over the 35-day post-dose period in Part A. Mass balance of radiolabeled ixazomib was characterized based on the sum of cumulative amounts excreted in feces and urine during the continuous collection interval up to 7 days post dose (day 8, 168 h), and the interpolated amounts excreted in feces and urine between the weekly intermittent collections up to 35 days post dose. For the intervals of time during which urine and feces were not collected, the interval recovery of TRA was estimated as the area under the excretion rate-time curve from the end of the preceding collection interval to the start of the subsequent collection interval. PK parameters were calculated by non-compartmental analysis methods (Phoenix WinNonlin version 6.2, Certara, Princeton, NJ, USA).

[2] = Safety and tolerability (treatment-emergent adverse events) of ixazomib in patients with advanced solid tumors; assay type: in vivo, human
Method: as §1, §2

relapsed/refractory MM = tested on: relapsed/refractory MM; design: method as in PMID 27119237; settings: cited from earlier work
[3] = design: method as in PMID 28290121; settings: population PK estimate; cited from earlier work
[4] = cited from earlier work
[5] = tested on: plasma proteins, primarily serum albumin; design: method as in PMID 27121262, PMID 27196567; settings: cited from earlier work
[6] = tested on: cytochrome P450 (CYP) and non-CYP proteins; design: method as in earlier work; settings: clinically relevant ixazomib concentrations; cited from earlier work
CYP3A4 = tested on: CYP3A4; design: method as in earlier work; settings: 10 μM, exceeding clinical concentrations; cited from earlier work
CYP2C8 = tested on: CYP2C8; design: method as in earlier work; settings: 10 μM, exceeding clinical concentrations; cited from earlier work
CYP2C9 = tested on: CYP2C9; design: method as in earlier work; settings: 10 μM, exceeding clinical concentrations; cited from earlier work
[7] = design: method as in PMID 28800141; settings: cited from earlier work

## CC(C)C[C@H](NC(=O)CNC(=O)c1cc(Cl)ccc1Cl)B(O)O [ixazomib]
[1]; human, plasma, po, 4.1 mg, plasma, single 4.1 mg oral solution dose of [14C]-ixazomib, read-out: Geometric mean AUC0–168, ng*h/mL (%CV), ixazomib
  AUC(0-t): 847 ng·h/mL
[1]; human, plasma, po, 4.1 mg, plasma, single 4.1 mg oral solution dose of [14C]-ixazomib, read-out: Geometric mean AUC0–312, ng*h/mL (%CV), ixazomib
  AUC(0-t): 1180 ng·h/mL
[1]; human, urine, po, 4.1 mg, up to 168 h post dose, single 4.1 mg oral solution dose, read-out: Mean urinary recovery, % (SD): administered dose recovered in urine as unchanged drug
  dose excreted: < 3.5%
[1]; human, plasma, single 4.1 mg oral solution dose of [14C]-ixazomib, read-out: Geometric mean Cmax, ng/mL (%CV), ixazomib
  Cmax: 89.1 ng/mL
[1]; human, urine, single 4.1 mg oral solution dose of [14C]-ixazomib, read-out: Geometric mean CLR (renal clearance), L/h (%CV) (converted)
  CL renal: 0.119 L/h
[1]; up to 168 h post dose, single 4.1 mg oral solution dose
  Mean urinary recovery, % (SD): administered dose recovered in urine as unchanged drug: 3.23 (2.13) %
[2]; human, in vivo
  Abdominal pain incidence: 43%
  Constipation incidence: 29%
  Decreased appetite incidence: 43%
  Diarrhea incidence: 71%
  Dry mouth incidence: 14%
  Headache incidence: 43%
  Nausea incidence: 29%
  Patients experiencing a grade 3 AE (influenza and platelet count decreased): two patients
  Patients with a drug-related event: 86%
  Premature discontinuation or dose reduction due to an adverse event: No patients
  Serious adverse event (influenza, deemed unrelated to study drug): One patient
  TEAEs affecting the gastrointestinal system: all patients experiencing an event
  Vomiting incidence: 29%
[2]; safety population N = 7
  Deaths on study: no patients died while on study
relapsed/refractory MM; ixazomib (4 mg starting dose) added to lenalidomide and dexamethasone, RRMM patients, versus 14.7 months with placebo
  Median progression-free survival: 20.6 months
relapsed/refractory MM; ixazomib plus lenalidomide and dexamethasone versus placebo plus lenalidomide and dexamethasone, p = 0.012
  Progression-free survival hazard ratio: 0.74
[3]
  Absolute oral bioavailability: 58%
  Steady-state volume of distribution: 543 L
  Systemic clearance: 1.86 L/h
  Terminal disposition phase half-life (t1/2): 228 h
[4]; after oral administration
  Median time to first maximum observed concentration (Tmax): approximately 1 h
[4]
  Effect of a high-fat meal on ixazomib absorption: decreases both the rate and extent of ixazomib absorption
  Geometric mean t1/2: 228 h
[5]
  Bound to plasma proteins: 99%
[6]
  Metabolic pathways in vitro: metabolized by multiple cytochrome P450 (CYP) and non-CYP proteins with CYP450 enzymes playing only a minor role
CYP3A4
  Estimated relative contribution of 3A4 to metabolism: 42%
CYP2C8
  Estimated relative contribution of 2C8 to metabolism: 6%
CYP2C9
  Estimated relative contribution of 2C9 to metabolism: < 1%
[7]; co-administration of rifampin
  Reduction of plasma exposures (AUC) of ixazomib: 74%
[7]; ketoconazole and clarithromycin
  Effect of strong CYP3A inhibitors on ixazomib PK: no significant effect
